Results on 34 molecules are retold here after US8673929B2, “4,6-di- and 2,4,6-trisubstituted quinazoline derivatives and pharmaceutical compositions useful for treating viral infections” (priority 2006, dated 2014).

pEC50: −log10 of the molar value.

Data set [1] has as its target HCV replicon. Briefly: Anti-HCV replicon assay, EC50 (luciferase readout). The following applies: Huh-7 HCV replicon cells, 3 days incubation, luciferase luminescence. Type of data set: cell-based. On the procedure:
(§1) The anti HCV activity of the quinazoline derivatives of this invention was tested in a human hepatoma Huh-7 cell line harbouring a HCV replicon. The assay comprised the following steps:
(§2) Step 1: compound preparation and serial dilution • 1. for water soluble quinazoline derivatives, a volume of 500 μL of solution in cell media (DMEM, 10% FBS, P/S, L-Glutamine) was prepared with a concentration being twice the concentration of the starting final serial dilution concentration. A volume of 150 μL of the solution was added to the pre-specified wells in column 1 of a 96-well cell culture plate (PerkinElmer, white plate, cat. #6005181, for EC50 assay; black plate, cat. #6005182 for CC50 assay). The rest of the plate, columns 2-12, was filled with 100 μL of cell media. The plate was then placed on a Precision 2000 Workstation to start the serial dilution. Compounds were diluted three times each step from column 1 to column 10. Column 11 was used as a blank control (no compound added). • 2. for quinazoline derivatives requiring DMSO to dissolve, serial dilution is performed in 50% DMSO in a 384-well plate. A solution containing a compound at 100-fold concentration of the starting final serial dilution concentration was prepared in 50% DMSO and added to the pre-specified wells in column 1 of a polypropylene 384-well plate. The plate was then placed on a Precision 2000 Workstation to start the serial dilution. After the serial dilution, a volume of 2 μL of the solution was transferred from the 384-well plate to a 96-well cell culture plate containing 100 μL of cell media on a Biomek FX Workstation. The DMSO concentration in the final assay condition was 0.5% after cells are added to the plate and the total volume in each well is brought to 200 μL.
(§3) Step 2: to each well of the serial dilution plate prepared above, 100 μL of cell media containing 6000 suspended Huh-7 HCV replicon cells was added with a Multidrop workstation. The plates were incubated for 3 days at 37° C. with 5% CO2.
(§4) Step 3: detection: • a) for the EC50 assay, the media in a 96-well cell culture plate was aspirated with a Biotek EL405 plate-washer. A volume of 200 μL of a solution containing a 1:1 mixture of cell-lysis buffer (Promega, Luciferase Cell Culture Lysis 5× Reagent, cat. #E1531) and luciferase substrate solution (Promega, Luciferase Assay, cat.# E4550) was added to each well of the plate with Multidrop. The plate was incubated for 30 minutes at room temperature before the luminescence signal was measured with a TopCount plate-reader. • b) for the CC50 assay, a volume of 100 μL of pre-mixed CellTiter-Glo (Promega, cat.# G7572) solution is added directly to the cell culture in each well of the plate and the luminescence signal is measured with a TopCount plate-reader after 10 minutes of incubation at room temperature.
(§5) Results in the table below are expressed by the following data: • the 50% cytostatic concentration (CC50), i.e. the concentration that results in 50% inhibition of cell growth, and • the 50% effective concentration (EC50), i.e. the concentration that […].
In general terms: Replicon systems follow genome replication, usually without infectious particles.

The nature of data set [2]: CC50 assay in the anti-HCV replicon assay (CellTiter-Glo). The note with it: human, Huh-7 hepatoma cells harbouring an HCV replicon; Huh-7 HCV replicon cells, 3 days incubation, CellTiter-Glo luminescence. Type of data set: cell-based, human. How it is done: as §1, §2, §3, §4, §5

“4-(4-(2-methmethoxy)-quinazolin-6-yl)-N-methyl-benzamide [Example 246]” showed a pEC50 in data set [1] of 5.00 to 6.00.
With `COc1ccc(-c2ccc3nc(N)nc(OC(C)C)c3c2)cc1OC` [Example 18, 2-amino-6-(3,4-dimethoxyphenyl)-4-isopropoxy-quinazoline], in data set [1] (Hepatitis C virus, 72 h), the pEC50 is greater than 6.52. The CC50 at 3 days in data set [2] was less than 10 µM.
In turn, `CCOc1nc(N)nc2ccc(-c3ccc(F)cc3)cc12` [Example 19, 2-amino-4-ethoxy-6-(4-fluorophenyl)-quinazoline] gave a pEC50 in data set [1] (Hepatitis C virus, 72 h) of 5.00 to 6.00. For the same molecule, the CC50 at 3 days in data set [2] was greater than 20 µM.
For `COCCOc1nc(N)nc2ccc(-c3ccc(F)cc3)cc12` [Example 20, 2-amino-6-(4-fluorophenyl)-4-(2-methoxyethoxy)-quinazoline], in that order: 5.00 to 6.00 and 10 to 20 µM.
Take `CC(C)Oc1nc(N)nc2ccc(-c3ccc(F)cc3)cc12` [Example 21, 2-amino-6-(4-fluorophenyl)-4-isopropoxy-quinazoline]: the pEC50 in data set [1] (Hepatitis C virus, 72 h) was 5.00 to 6.00. The CC50 at 3 days in data set [2] is greater than 20 µM.
For `Nc1nc(OCC(F)(F)F)c2cc(-c3ccc(F)cc3)ccc2n1` [Example 26, 2-amino-6-(4-fluorophenyl)-4-(2,2,2-trifluoroethoxy)-quinazoline], in that order: 5.00 to 6.00 and 10 to 20 µM.
For `CC(=O)Nc1ccc(-c2ccc3nc(N)nc(OC(C)C)c3c2)cc1` [Example 27, 2-amino-6-(4-acetamidophenyl)-4-isopropoxy-quinazoline], in that order: 6.00 to 6.52 and greater than 20 µM.
For `COCCOc1nc(N)nc2ccc(-c3ccc(NC(C)=O)cc3)cc12` [Example 28, 2-amino-6-(4-acetamidophenyl)-4-(2-methoxyethoxy)-quinazoline], in that order: 6.00 to 6.52 and 10 to 20 µM.
`CC(=O)Nc1ccc(-c2ccc3nc(N)nc(OCCN4CCOCC4)c3c2)cc1` [Example 29, 2-amino-6-(4-acetamidophenyl)-4-[2-(4-morpholinyl)ethoxy]-quinazoline]: the pEC50 in data set [1] (Hepatitis C virus, 72 h) was 6.00 to 6.52. In data set [2], this molecule registered a CC50 at 3 days greater than 20 µM.
For `CCOc1nc(N)nc2ccc(-c3ccc(NC(C)=O)cc3)cc12` [Example 30, 2-amino-6-(4-acetamidophenyl)-4-ethoxy-quinazoline], in that order: 6.00 to 6.52 and greater than 20 µM.
For `CC(=O)Nc1ccc(-c2ccc3nc(N)nc(OCC4CC4)c3c2)cc1` [Example 31, 2-amino-6-(4-acetamidophenyl)-4-(cyclopropyl-methoxy)-quinazoline], in that order: 6.00 to 6.52 and greater than 20 µM.
For `CC(=O)Nc1ccc(-c2ccc3nc(N)nc(OCC(F)(F)F)c3c2)cc1` [Example 32, 2-amino-6-(4-acetamidophenyl)-4-(2,2,2-trifluoroethoxy)-quinazoline], in that order: 6.00 to 6.52 and greater than 20 µM.
Turning to `CCOc1ncnc2ccc(-c3ccc(F)cc3)cc12` [Example 34, 4-ethoxy-6-(4-fluorophenyl)-quinazoline], the negative logarithm of the EC50 (pEC50) in data set [1] (Hepatitis C virus, 72 h) was 6.00 to 6.52. Also, in data set [2], the CC50 at 3 days was greater than 20 µM.
For `COCCOc1ncnc2ccc(-c3ccc(F)cc3)cc12` [Example 35, 4-(2-methoxyethoxy)-6-(4-fluorophenyl)-quinazoline], in that order: 5.00 to 6.00 and greater than 20 µM.
For `CCOc1nc(N)nc2ccc(-c3cccc(F)c3F)cc12` [Example 38], in that order: 5.00 to 6.00 and 10 to 20 µM.
For `CCOc1nc(N)nc2ccc(-c3ccc(C)cc3)cc12` [Example 39, 4-Ethoxy-6-p-tolyl-quinazolin-2-ylamine], in that order: 5.00 to 6.00 and greater than 20 µM.
In data set [1] (Hepatitis C virus, 72 h), `CCOc1nc(N)nc2ccc(-c3ccoc3)cc12` [Example 40, 4-Ethoxy-6-furan-3-yl-quinazolin-2-ylamine] had a negative logarithm of the EC50 (pEC50) of 5.00 to 6.00. Moreover, the CC50 at 3 days in data set [2] is greater than 20 µM.
For `CCOc1nc(N)nc2ccc(-c3ccn[nH]3)cc12` [Example 41, 4-Ethoxy-6-(2H-pyrazol-3-yl)-quinazolin-2-ylamine], in that order: 5.00 to 6.00 and greater than 20 µM.
For `CCOc1nc(N)nc2ccc(-c3cccs3)cc12` [Example 42, 4-Ethoxy-6-thiophen-2-yl-quinazolin-2-ylamine], in that order: 5.00 to 6.00 and less than 10 µM.
For `CCOc1nc(N)nc2ccc(-c3ccc(C(=O)NC)cc3)cc12` [Example 43, 4-(2-Amino-4-ethoxy-quinazolin-6-yl)-N-methyl-benzamide], in that order: greater than 6.52 and greater than 20 µM.
Molecule `CCOc1nc(N)nc2ccc(-c3ccco3)cc12` [Example 44, 4-Ethoxy-6-furan-2-yl-quinazolin-2-ylamine] showed a negative logarithm of the EC50 (pEC50) in data set [1] (Hepatitis C virus, 72 h) of 5.00 to 6.00. Further, in data set [2], the CC50 at 3 days was greater than 20 µM.
For `CCOc1nc(N)nc2ccc(-c3ccsc3)cc12` [Example 45, 4-Ethoxy-6-thiophen-3-yl-quinazolin-2-ylamine], in that order: 5.00 to 6.00 and greater than 20 µM.
As for `CCOc1nc(N)nc2ccc(-c3ccc(F)c(F)c3)cc12` [Example 46, 6-(3,4-Difluoro-phenyl)-4-ethoxy-quinazolin-2-ylamine], in data set [1] (Hepatitis C virus, 72 h), the pEC50 was 5.00 to 6.00. The same molecule gave a CC50 at 3 days in data set [2] greater than 20 µM.
For `CCOc1nc(N)nc2ccc(-c3cccc(C#N)c3)cc12` [Example 47, 3-(2-Amino-4-ethoxy-quinazolin-6-yl)-benzonitrile], in that order: 5.00 to 6.00 and greater than 20 µM.
For `CCOc1nc(N)nc2ccc(-c3cn[nH]c3)cc12` [Example 48, 4-Ethoxy-6-(2H-pyrazol-4-yl)-quinazolin-2-ylamine], in that order: 6.00 to 6.52 and greater than 20 µM.
`CCOc1nc(N)nc2ccc(-c3ccc(N)cc3)cc12` [Example 49, 6-(4-Amino-phenyl)-4-ethoxy-quinazolin-2-ylamine]: the pEC50 in data set [1] (Hepatitis C virus, 72 h) was 5.00 to 6.00. In addition, in data set [2], the CC50 at 3 days is greater than 20 µM.
For `CCOc1nc(N)nc2ccc(-c3ccc(F)c(F)c3F)cc12` [Example 50, 4-Ethoxy-6-(2,3,4-trifluoro-phenyl)-quinazolin-2-ylamine], in that order: 5.00 to 6.00 and 10 to 20 µM.
For the molecule `CCOc1nc(N)nc2ccc(-c3ccc(O)cc3)cc12` [Example 51, 4-(2-Amino-4-ethoxy-quinazolin-6-yl)-phenol], the negative logarithm of the EC50 (pEC50) in data set [1] (Hepatitis C virus, 72 h) was 6.00 to 6.52. The molecule further came in with a CC50 at 3 days in data set [2] of 10 to 20 µM.
Take `COCCOc1nc(N)nc2ccc(-c3cccc(F)c3F)cc12` [Example 52, 6-(2,3-Difluoro-phenyl)-4-(2-methoxy-ethoxy)-quinazolin-2-ylamine]: in data set [1] (Hepatitis C virus, 72 h), the pEC50 is 5.00 to 6.00. Besides, the CC50 at 3 days in data set [2] is 10 to 20 µM.
For `COCCOc1nc(N)nc2ccc(-c3ccccc3C(F)(F)F)cc12` [Example 53, 4-(2-Methoxy-ethoxy)-6-(2-trifluoromethyl-phenyl)-quinazolin-2-ylamine], in that order: 5.00 to 6.00 and less than 10 µM.
For `COCCOc1nc(N)nc2ccc(-c3ccc(Cl)s3)cc12` [Example 54, 6-(5-Chloro-thiophen-2-yl)-4-(2-methoxy-ethoxy)-quinazolin-2-ylamine], in that order: 5.00 to 6.00 and greater than 20 µM.
For `COCCOc1nc(N)nc2ccc(-c3ccc(C)cc3)cc12` [Example 55, 4-(2-Methoxy-ethoxy)-6-p-tolyl-quinazolin-2-ylamine], in that order: 5.00 to 6.00 and greater than 20 µM.
`COCCOc1nc(N)nc2ccc(-c3cc4ccccc4s3)cc12` [Example 56, 6-Benzo[b]thiophen-2-yl-4-(2-methoxy-ethoxy)-quinazolin-2-ylamine] had a pEC50 in data set [1] (Hepatitis C virus, 72 h) of 5.00 to 6.00. The CC50 at 3 days in data set [2] is greater than 20 µM.
For `COCCOc1nc(N)nc2ccc(-c3cc4ccccc4o3)cc12` [Example 57, 6-Benzofuran-2-yl-4-(2-methoxy-ethoxy)-quinazolin-2-ylamine], in that order: 5.00 to 6.00 and 10 to 20 µM.

The pEC50 is the EC50 on a negative log10 scale, so that one unit is a factor of ten. A low value points to a large EC50. As usually defined, the CC50 is the concentration that lowers cell viability or growth by half.
